pEC50: −log10 of the molar value.
Target: GLP-1R (Homo sapiens, UniProt P43220)
Assay: In vitro activity assay (cAMP HTRF, HEK293-CRE-luc-GLP-1R cells)
Type: cell-based
Parameters: expressed in transfected cells; host or cells: HEK293 (HEK293-CRE-luc-GLP-1R)
Conditions: cAMP HTRF 665 nm/620 nm, 1 h incubation
Description: HEK293-CRE-luc-GLP-1R cells were seeded into a 384-well cell culture plate (Greiner #781946) at a certain cell density (5 µL/well). 5 µl/well of 2× working solution was added to the 384-well microplate. The microplate was sealed with parafilm and incubated in a 37°C 5% CO2 incubator (Thermo) for 1 h. Subsequently, the detection was performed using the cAMP-GS HIRANGE KIT (PerkinElmer, 62AM6PEB), and detection reagents were prepared according to the kit instruction manual. After the incubation, the detection reagents were added to the 384-well microplate, and the microplate was incubated for 1 h at room temperature in the dark. HTRF signals at 665 nm and 620 nm were then measured using a multimode microplate reader. Data were exported from the microplate reader in Excel format. GraphPad Prism was opened. The logarithm of the sample concentration was calculated. Using the logarithm of concentration as the x-axis and the 665 nm/620 nm ratio as the y-axis, four-parameter logistic fitting was performed to obtain the EC50 value of the curve. Table 1: EC50 of compounds against GLP-1

Sequence of GLP-1R (P43220 24-463): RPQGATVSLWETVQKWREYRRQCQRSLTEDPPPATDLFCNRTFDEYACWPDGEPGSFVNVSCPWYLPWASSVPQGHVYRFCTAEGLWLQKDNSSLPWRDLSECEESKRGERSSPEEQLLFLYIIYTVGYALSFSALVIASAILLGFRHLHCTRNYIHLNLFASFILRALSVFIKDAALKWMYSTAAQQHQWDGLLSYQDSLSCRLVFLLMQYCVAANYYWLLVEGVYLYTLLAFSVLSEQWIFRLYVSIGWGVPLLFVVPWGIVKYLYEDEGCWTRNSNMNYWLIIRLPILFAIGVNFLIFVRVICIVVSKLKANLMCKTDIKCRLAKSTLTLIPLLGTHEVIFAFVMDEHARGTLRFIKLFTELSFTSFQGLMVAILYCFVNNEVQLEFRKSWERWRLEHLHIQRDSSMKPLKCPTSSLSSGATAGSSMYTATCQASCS

Structure (SMILES) | pEC50
Cc1cc(-n2nc3c(c2-n2ccn(-c4ccc5c(c4)N(C)C(=O)C54CCCC4)c2=O)[C@H](C)N(C(=O)c2cc4cc([C@H]5CCOC(C)(C)C5)ccc4n2[C@@]2(c4noc(=O)[nH]4)C[C@@H]2C)CC3)cc(C)c1F [Compound 5] | > 9.00
Cc1cc(-n2nc3c(c2-n2ccn(-c4ccc5c(c4F)N(C)C(=O)C54CCOCC4)c2=O)[C@H](C)N(C(=O)c2cc4cc([C@H]5CCOC(C)(C)C5)ccc4n2[C@@]2(c4noc(=O)[nH]4)C[C@@H]2C)CC3)cc(C)c1F [Compound 7] | > 9.00
[2H]C([2H])([2H])N1C(=O)C2(CCOCC2)c2ccc(-n3ccn(-c4c5c(nn4-c4cc(C)c(F)c(C)c4)CCN(C(=O)c4cc6cc([C@H]7CCOC(C)(C)C7)ccc6n4[C@@]4(c6noc(=O)[nH]6)C[C@@H]4C)[C@H]5C)c3=O)c(F)c21 [Compound 8] | > 9.00
Cc1cc(-n2nc3c(c2-n2ccn(-c4ccc5c(c4)N(C)C(=O)C54CCN(C(=O)C5CC5)CC4)c2=O)[C@H](C)N(C(=O)c2cc4cc([C@H]5CCOC(C)(C)C5)ccc4n2[C@@]2(c4noc(=O)[nH]4)C[C@@H]2C)CC3)cc(C)c1F [Compound 12] | > 9.00
Cc1cc(-n2nc3c(c2-n2ccn(-c4ccc5c(c4)N(C)C(=O)C54CCN(C(=O)[C@@H]5C[C@H]5F)CC4)c2=O)[C@H](C)N(C(=O)c2cc4cc([C@H]5CCOC(C)(C)C5)ccc4n2[C@@]2(c4noc(=O)[nH]4)C[C@@H]2C)CC3)cc(C)c1F [Compound 13] | > 9.00
Cc1cc(-n2nc3c(c2-n2ccn(-c4ccc5c(c4)N(C)C(=O)C54CCN(C(=O)N[C@@H]5C[C@@H]5F)CC4)c2=O)[C@H](C)N(C(=O)c2cc4cc([C@H]5CCOC(C)(C)C5)ccc4n2[C@@]2(c4noc(=O)[nH]4)C[C@@H]2C)CC3)cc(C)c1F [Compound 17] | > 9.00
Cc1cc(-n2nc3c(c2-n2ccn(-c4ccc5c(c4)N(C)C(=O)C54CCN(C(=O)C5COC5)CC4)c2=O)[C@H](C)N(C(=O)c2cc4cc([C@H]5CCOC(C)(C)C5)ccc4n2[C@@]2(c4noc(=O)[nH]4)C[C@@H]2C)CC3)cc(C)c1F [Compound 18] | > 9.00
Cc1cc(-n2nc3c(c2-n2ccn(-c4ccc5c(c4)N(C)C(=O)C54CCN(S(=O)(=O)C5CC5)CC4)c2=O)[C@H](C)N(C(=O)c2cc4cc([C@H]5CCOC(C)(C)C5)ccc4n2[C@@]2(c4noc(=O)[nH]4)C[C@@H]2C)CC3)cc(C)c1F [Compound 20] | > 9.00
Cc1cc(-n2nc3c(c2-n2ccn(-c4ccc5c(c4)N(C)C(=O)C54CCN(C(=O)C5C6COCC65)CC4)c2=O)[C@H](C)N(C(=O)c2cc4cc([C@H]5CCOC(C)(C)C5)ccc4n2[C@@]2(c4noc(=O)[nH]4)C[C@@H]2C)CC3)cc(C)c1F (some centres unmarked) [Compound 22] | > 9.00
Cc1cc(-n2nc3c(c2-n2ccn(-c4ccc5c(c4)N(C)C(=O)C54CCN(C(=O)C5(c6ccccn6)CC5)CC4)c2=O)[C@H](C)N(C(=O)c2cc4cc([C@H]5CCOC(C)(C)C5)ccc4n2[C@@]2(c4noc(=O)[nH]4)C[C@@H]2C)CC3)cc(C)c1F [Compound 23] | > 9.00
Cc1cc(-n2nc3c(c2-n2ccn(-c4ccc5c(c4)N(C)C(=O)C54CCN(C(=O)c5cnn(C6CC6)c5)CC4)c2=O)[C@H](C)N(C(=O)c2cc4cc([C@H]5CCOC(C)(C)C5)ccc4n2[C@@]2(c4noc(=O)[nH]4)C[C@@H]2C)CC3)cc(C)c1F [Compound 25] | > 9.00
Cc1cc(-n2nc3c(c2-n2ccn(-c4ccc5c(c4)N(C)C(=O)C54CCN(C(=O)C56CC(F)(C5)C6)CC4)c2=O)[C@H](C)N(C(=O)c2cc4cc([C@H]5CCOC(C)(C)C5)ccc4n2[C@@]2(c4noc(=O)[nH]4)C[C@@H]2C)CC3)cc(C)c1F [Compound 26] | > 9.00
Cc1cc(-n2nc3c(c2-n2ccn(-c4ccc5c(c4)N(C)C(=O)C54CCN(C(=O)C5CCN(C(=O)C6CC6)CC5)CC4)c2=O)[C@H](C)N(C(=O)c2cc4cc([C@H]5CCOC(C)(C)C5)ccc4n2[C@@]2(c4noc(=O)[nH]4)C[C@@H]2C)CC3)cc(C)c1F [Compound 29] | > 9.00
Cc1cc(-n2nc3c(c2-n2ccn(-c4ccc5c(c4)N(C)C(=O)C54CCN(C(=O)c5cnn(C(F)F)c5)CC4)c2=O)[C@H](C)N(C(=O)c2cc4cc([C@H]5CCOC(C)(C)C5)ccc4n2[C@@]2(c4noc(=O)[nH]4)C[C@@H]2C)CC3)cc(C)c1F [Compound 30] | > 9.00
Cc1cc(-n2nc3c(c2-n2ccn(-c4ccc5c(c4)N(C)C(=O)C54CCN(C(=O)c5cnn(CC6CC6)c5)CC4)c2=O)[C@H](C)N(C(=O)c2cc4cc([C@H]5CCOC(C)(C)C5)ccc4n2[C@@]2(c4noc(=O)[nH]4)C[C@@H]2C)CC3)cc(C)c1F [Compound 32] | > 9.00
COP(=O)(OC)N1CCC2(CC1)C(=O)N(C)c1cc(-n3ccn(-c4c5c(nn4-c4cc(C)c(F)c(C)c4)CCN(C(=O)c4cc6cc([C@H]7CCOC(C)(C)C7)ccc6n4[C@@]4(c6noc(=O)[nH]6)C[C@@H]4C)[C@H]5C)c3=O)ccc12 [Compound 33] | > 9.00

Structure (SMILES) | pEC50
Cc1cc(-n2nc3c(c2-n2ccn(-c4ccc5c(c4)N(C)C(=O)C54CCN(C(=O)C5(CF)CC5)CC4)c2=O)[C@H](C)N(C(=O)c2cc4cc([C@H]5CCOC(C)(C)C5)ccc4n2[C@@]2(c4noc(=O)[nH]4)C[C@@H]2C)CC3)cc(C)c1F [Compound 35] | > 9.00
Cc1cc(-n2nc3c(c2-n2ccn(-c4ccc5c(c4)N(C)C(=O)C54CCN(C(=O)COCC5CC5(F)F)CC4)c2=O)[C@H](C)N(C(=O)c2cc4cc([C@H]5CCOC(C)(C)C5)ccc4n2[C@@]2(c4noc(=O)[nH]4)C[C@@H]2C)CC3)cc(C)c1F (some centres unmarked) [Compound 37] | > 9.00
[2H]C([2H])([2H])N1C(=O)C2(CCN(S(=O)(=O)C3CC3)CC2)c2ccc(-n3ccn(-c4c5c(nn4-c4cc(C)c(F)c(C)c4)CCN(C(=O)c4cc6cc([C@H]7CCOC(C)(C)C7)ccc6n4[C@@]4(c6noc(=O)[nH]6)C[C@@H]4C)[C@H]5C)c3=O)cc21 [Compound 38] | > 9.00
[2H]C([2H])([2H])N1C(=O)C2(CCN(C(=O)C3C4COCC43)CC2)c2ccc(-n3ccn(-c4c5c(nn4-c4cc(C)c(F)c(C)c4)CCN(C(=O)c4cc6cc([C@H]7CCOC(C)(C)C7)ccc6n4[C@@]4(c6noc(=O)[nH]6)C[C@@H]4C)[C@H]5C)c3=O)cc21 (some centres unmarked) [Compound 39] | > 9.00
[2H]C([2H])([2H])N1C(=O)C2(CCN(C(=O)C3CC3F)CC2)c2ccc(-n3ccn(-c4c5c(nn4-c4cc(C)c(F)c(C)c4)CCN(C(=O)c4cc6cc(C7CCOC(C)(C)C7)ccc6n4C4(c6noc(=O)[nH]6)CC4C)C5C)c3=O)cc21 (centres unmarked) [Compound 40] | > 9.00
C[C@H]1c2c(nn(-c3ccc(F)c(C4CC4)c3)c2-n2ccn(-c3ccc4c(c3F)N(C)C(=O)C43CCOCC3)c2=O)CCN1C(=O)c1cc2cc([C@H]3CCOC(C)(C)C3)ccc2n1[C@@]1(c2noc(=O)[nH]2)C[C@@H]1C [Compound 42] | > 9.00
[2H]C([2H])([2H])N1C(=O)C2(CCOCC2)c2ccc(-n3ccn(-c4c5c(nn4-c4ccc(F)c(C6CC6)c4)CCN(C(=O)c4cc6cc([C@H]7CCOC(C)(C)C7)ccc6n4[C@@]4(c6noc(=O)[nH]6)C[C@@H]4C)[C@H]5C)c3=O)c(F)c21 [Compound 43] | > 9.00
[2H]C([2H])([2H])N1C(=O)C2(CCOCC2)c2ccc(-n3ccn(-c4c5c(nn4-c4ccc(F)c(C6(F)CC6)c4)CCN(C(=O)c4cc6cc([C@H]7CCOC(C)(C)C7)ccc6n4[C@@]4(c6noc(=O)[nH]6)C[C@@H]4C)[C@H]5C)c3=O)cc21 [Compound 44] | > 9.00
[2H]C([2H])([2H])N1C(=O)C2(CCOCC2)c2ccc(-n3ccn(-c4c5c(nn4-c4ccc(F)c(C6(F)CC6)c4)CCN(C(=O)c4cc6cc([C@H]7CCOC(C)(C)C7)ccc6n4[C@@]4(c6noc(=O)[nH]6)C[C@@H]4C)[C@H]5C)c3=O)c(F)c21 [Compound 45] | > 9.00
C[C@H]1c2c(nn(-c3ccc(F)c(C4(F)CC4)c3)c2-n2ccn(-c3ccc4c(c3F)N(C)C(=O)C43CCOCC3)c2=O)CCN1C(=O)c1cc2cc([C@H]3CCOC(C)(C)C3)ccc2n1[C@@]1(c2noc(=O)[nH]2)C[C@@H]1C [Compound 46] | > 9.00
Cc1cc(-n2nc3c(c2-n2ccn(-c4ccc5c(c4)N(C)C(=O)C54CCOCC4)c2=O)[C@H](C)N(C(=O)c2cc4cc(C5CCOCC5)ccc4n2[C@@]2(c4noc(=O)[nH]4)C[C@@H]2C)CC3)cc(C)c1F [Compound 47] | > 9.00
C[C@H]1c2c(nn(-c3ccc(F)c(C4(F)CC4)c3)c2-n2ccn(-c3ccc4c(c3F)N(C)C(=O)C43CCOCC3)c2=O)CCN1C(=O)c1cc2cc(C3CCOCC3)ccc2n1[C@@]1(c2noc(=O)[nH]2)C[C@@H]1C [Compound 49] | > 9.00
[2H]C([2H])([2H])N1C(=O)C2(CCOCC2)c2ccc(-n3ccn(-c4c5c(nn4-c4ccc(F)c(C6(F)CC6)c4)CCN(C(=O)c4cc6cc(C7CCOCC7)ccc6n4[C@@]4(c6noc(=O)[nH]6)C[C@@H]4C)[C@H]5C)c3=O)c(F)c21 [Compound 51] | > 9.00
C=C(F)c1cc(-n2nc3c(c2-n2ccn(-c4ccc5c(c4)N(C)C(=O)C54CCOCC4)c2=O)[C@H](C)N(C(=O)c2cc4cc([C@H]5CCOC(C)(C)C5)ccc4n2[C@@]2(c4noc(=O)[nH]4)C[C@@H]2C)CC3)ccc1F [Compound 52] | > 9.00
[2H]C([2H])([2H])N1C(=O)C2(CCOCC2)c2ccc(-n3ccn(-c4c5c(nn4-c4ccc(F)c(C(=C)F)c4)CCN(C(=O)c4cc6cc([C@H]7CCOC(C)(C)C7)ccc6n4[C@@]4(c6noc(=O)[nH]6)C[C@@H]4C)[C@H]5C)c3=O)cc21 [Compound 53] | > 9.00
Cc1cc(-n2nc3c(c2-n2ccn(-c4ccc5c(c4F)N(C)C(=O)C54CCOCC4)c2=O)[C@H](C)N(C(=O)c2cc4cc(C5CCOCC5)ccc4n2[C@@]2(c4noc(=O)[nH]4)C[C@@H]2C)CC3)cc(C)c1F [Compound 56] | > 9.00
